According to patent US6046177A, “Sulfoalkyl ether cyclodextrin based controlled release solid pharmaceutical formulations” (Cydex, Inc., priority 1999, dated 2000):
In brackets after ≈: the same amount, converted by molar mass.

Key:
[1] = cited from earlier work; for dissolution of complex vs. physical mixture: β-cyclodextrin complex vs. physical mixture
[2] = gels with methyl-β-cyclodextrin; cited from earlier work
[3] = In vitro release of dipyridamole from coated tablets (USP apparatus II); format: physicochemical; details: for release of DP without SAE-CD: core DP, citric acid, fructose-lactose
[4] = in words; cited from earlier work
[5] = In vitro release of dipyridamole from coated tablets (USP apparatus II); format: physicochemical
Experimental: The sample volume was 20 μl and the UV detection wavelength was […] (Shimadzu 6A, Shimadzu, Japan). A mobile phase consisting of 70% methanol and 30% ammonium phosphate buffer (pH 5.0) was passed through the column at a flow rate of 1.5 ml/min. (SBE)7m -β-CD was detected by using a fluorimetric assay, 0.2 ml of a 1 mM solution of 2,6-toluidino-naphthalene-sulfonate to 0.8 ml of the sample. This solution was then excited at 325 nm and the emitted fluorescence detected at 455 nm using a Perkin 25 Elmer (Perkin-Elmer, CT) Fluorescence detector.
The ground physical mixture was then sieved through a 200 mesh (75 μm) screen. This process was repeated twice. This mixture was always stored in a desiccator when not used.
The dissolution die consists of a cylindrical stainless steel center-piece,a stainless steel platform, a stainless steel top cover, two Teflon sheets (top and bottom) and Teflon inserts. The cylindrical center-piece has a hole (radius=7.5 mm ) at the center in which the tablet is compressed. Both, the stainless steel top cover and top Teflon sheet have holes of same radius at the center. The center-piece was inverted and screwed onto the platform. […] The tablet core was compressed with a force of one ton for one minute using Carver press (Fred Carver Inc., NJ). The punch was carefully removed from the center-piece.
™ coatings were made by dissolving 5% (w/w) of […]™ R or S (Huls America, NJ), 5% of urea (SIGMA, MO) or polyethylene glycol (PEG 3350, SIGMA, MO) and 0.75% of triethyl Citrate (TEC, SIGMA, MO) in 89.25% ethanol. This was carried out until a clear solution was obtained. Cellulose acetate (CA-320S7 Eastman Chemical Co., TN) and hydroxypropyl methylcellulose phthalate (HPMCP, Eastman Chemical Co., TN) polymeric solutions were made by dissolving 5% of polymers and 1% of TEC in 94% of solvent containing equal amounts of methylene chloride and methanol. The ratio of CA to HPMCP was varied from 50:50 to 75:25 but the total amount of polymer was always maintained at 5%. The dissolution was carried out until clear solutions were obtained.
This coating solution was then air sprayed directly on the tablet surface under constant air flow (approx. 70° C.). The coated tablets were dried additionally for a period of 15 minutes under the same air flow. The tablets were additionally dried for a period of 12-16 hr. at room temperature. The thickness of the membrane was assumed to be the difference of thickness of the tablet after and before coating. The thickness measurements were carried out using a Screw-gauge micrometer.
The release studies for tablets coated with Eudragit L and CA: HPMCP were conducted by placing the dissolution die in a USP dissolution apparatus II (Vanderkamp 600, VanKel Industries Inc.) containing 450 ml of HCl (pH 1.5, 37° C. and 100 r.p.m.). […] 1.5 ml samples were collected periodically and equal amounts of dissolution medium was returned to the dissolution vessel. For the CA: HPMCP coated tablet, 100% release was determined by removing the membrane from the die and allowing the drug dissolution to be complete. The release experiments for tablets coated with Eudragit were conducted similarly in 450 ml of HCl for the first 2 hours, then placed in a phosphate buffer (pH 6.4) for additional 5 hr. and then placed in a phosphate buffer (pH 7.2). The release conditions and procedures were as described above.
0.5 ml of the sample was diluted by half in the mobile phase and the diluted samples were then analyzed using HPLC assay to determine drug concentrations as described in a later section.

physchem = assay: physchem
Experimental: (SBE)7 -β-CD (0-0.1 M) solutions were made in different buffer solutions at pH values ranging from 4.0 to 7.0 (citrate for 4 & 5; phosphate for 6 &7). […] The solutions were centrifuged for 10 min. at 2500 rpm. 20 μl of the supernatant was carefully sampled using a 100 μl gas-tight Hamilton Syringe (Hamilton, Nev.), diluted with mobile phase and analyzed by HPLC. The solubility data was then used to determine the binding constant using the method of Higuchi and Connors for AL-type phase behavior.

pKa of dipyridamole = format: physicochemical; details: basic drug
[6] = Release of prednisolone and SBE7 β-CD from uncoated controlled release tablet cores; format: physicochemical; details: for effect of HPMC viscosity 15,000 to 100,000 cps on release: 5% PD
Experimental: The above ingredients are used to make a 300 mg tablet core having a controlled release profile. The ingredients were blended by hand and individual tablets were prepared on a carver press under a pressure of 1 ton for 7 seconds. The tablets were prepared using a 5/16" standard cup concave tooling. The determination of the release profile by dissolution was conducted according to USP method 2 at 37°, 100 rpm with paddles in a 900 ml water bath. The amounts of prednisolone (PD) released was determined by HPLC, and the amount of SBE7 -βCD released was determined by TNS as described herein.

[7] = osmotic pump tablet with (SBE)7M -β-CD; cited from earlier work

In the case of `CC(=O)Nc1ccc(O)cc1` [acetaminophen], the “dissolution of complex vs. physical mixture” value [1] is listed as “significantly better, dissolution profile”.
For `N=C(N)NCC1CCC(C(=O)Oc2ccccc2C(=O)OCc2ccccc2)CC1` (centres unmarked) [benexate], the “solubility of complex vs. physical mixture” value ([1]; cyclodextrin complex vs. physical mixture or neat) is listed as “significantly increased solubility”.
For `O=C1CN=C(c2ccccc2Cl)c2cc([N+](=O)[O-])ccc2N1` [clonazepam], the “flux rate of clonazepam” value [2] is given as “improves the flux rate”.
For `OCCN(CCO)c1nc(N2CCCCC2)c2nc(N(CCO)CCO)nc(N3CCCCC3)c2n1` [dipyridamole], the “release profile, SBE7 β-CD vs. DP” value ([3]; EUDRAGIT-L film 150 μm, pH raised from 1.5 to 6.8 after two hours, FIG. 9) was “substantially the same release profile”, the release delay ([3]; EUDRAGIT-L film, pH 1.5 to 6.8, FIG. 9) was “two hour delay” and the “release of DP without SAE-CD” value ([3]; CA:HPMCP (50:50) 120 μm film) was “no release of DP was obtained”. For the same compound, the “release of DP without SAE-CD” value ([3]; EUDRAGIT-L and urea (50:50) 120 μm film) was “incomplete release of DP was observed”, the bioavailability [4] was “low and variable bioavailability” and the type of release ([5]; 90 μm film, CA:HPMCP 1:1, FIG. 14) was “delayed release”. The type of release ([5]; 105 μm film, CA:HPMCP 6:4, FIG. 14) was “combined delayed and controlled release”, the “effect of film thickness on release profile” value ([5]; CA/HPMCP film 90 μm to 170 μm, FIG. 13) was “did not appear to substantially affect the release profile” and the type of release ([5]; CA:HPMCP 1:1 film, FIG. 12) was “combined delayed and controlled release”. The “effect of film thickness on release profile” value ([5]; EUDRAGIT-L/urea film, physical mixture core, FIG. 10) was “independent of film thickness but dependent upon solution pH”, the “pH at which DP is released” value ([5]; EUDRAGIT-S and urea film, FIG. 11) was roughly 7.2 and the “pH at which DP is released” value ([5]; comparison (EUDRAGIT-L and urea film)) was “about 6.8”. For the same compound, the solubility at 24 h (physchem; citrate buffer with sbe7 β-cd, pH 4) was 16000 µg/mL (≈ 31700 µM), the solubility at 24 h (physchem; citrate buffer, pH 4, aqueous buffer) was 1990 µg/mL (≈ 3940 µM) and the solubility at 24 h (physchem; phosphate buffer with sbe7 β-cd, pH 7) was 504 µg/mL (≈ 999 µM). It also gave a solubility at 24 h (physchem; phosphate buffer, pH 7, aqueous buffer) of 3.56 µg/mL (≈ 7.05 µM), a solubility (physchem; water) of 3.6 µg/mL (≈ 7.13 µM) and a pKa (pKa of dipyridamole) of 6.28.
For `COc1ccc2c(c1)c(CC(=O)O)c(C)n2C(=O)c1ccc(Cl)cc1` [indomethacin], the “dissolution of complex vs. physical mixture” value [1] is listed as “significantly better, dissolution profile”.
For `CCC1(c2ccccc2)C(=O)NC(=O)NC1=O` [phenobarbitone], the “controlled dissolution, preformed complex vs. physical mixture” value ([1]; β-cyclodextrin) is listed as “preformed complex performs substantially better than the physical mixture”.
In the case of `CN1C(C(=O)Nc2ccccn2)=C(O)c2ccccc2S1(=O)=O` [piroxicam], the “dissolution of complex vs. physical mixture” value [1] is given as “significantly better, dissolution profile”.
For `C[C@]12C=CC(=O)C=C1CC[C@@H]1[C@@H]2[C@@H](O)C[C@@]2(C)[C@H]1CC[C@]2(O)C(=O)CO` [prednisolone], the “effect of HPMC viscosity 15,000 to 100,000 cps on release” value ([6]; 35% SAE-CD, 50% HPMC, 10% lactose, FIG. 20) was “substantially independent of the viscosity of the HPMC”, the “effect of HPMC viscosity 15,000 to 100,000 cps on release” value ([6]; 70% SAE-CD, 25% HPMC, FIG. 19) was “the rate of delivery of the PD and the overall amount of PD delivered increases” and the “effect of decreasing SAE-CD (increasing lactose) on delivery” value ([6]; PD 5%, HPMC approximately 25%, FIG. 17) was “the rate of delivery of the PD and the overall amount of PD delivered decrease”. For the same compound, the “effect of increasing release rate modifier ratio on release rate” value ([6]; PD 5%, SAE-CD 35%, HPMC 25% to 50%, FIG. 18) was “the release rate of the drug is decreased”, the PD released ([6]; control HPMC K100M, no cyclodextrin, eleven hours, FIG. 19) was “approximately 50 % by weight” and the PD released ([6]; control HPMC K100M, no cyclodextrin, six hours, FIG. 19) was “approximately 30 % by weight”. The PD released ([6]; no cyclodextrin, HPMC, after eleven hours, FIG. 16) was “approximately 50 % by weight”, the drug released ([6]; release rate modifier:drug approximately 5:1, 12 hours, FIG. 18) was 75-90% and the drug released ([6]; release rate modifier:drug approximately 5:1, about six hours, FIG. 18) was 65-75%. The drug released ([6]; release rate modifier:drug approximately 10:1, 12 hours, FIG. 18) was 55-60%, the drug released ([6]; release rate modifier:drug approximately 10:1, about six hours, FIG. 18) was 40-50% and the PD released ([6]; with SAE-CD, HPMC, approximately six hours, FIG. 16) was “greater than 90%”. For the same compound, the PD released ([6]; with SAE-CD, HPMC, eleven hours, FIG. 16) was “substantially complete delivery of the drug” and the release profile [7] was “sustained release profile is provided by the osmotic pump tablet so long as the semipermeable membrane is present”.
For `CN1C(=O)C(O)N=C(c2ccccc2)c2cc(Cl)ccc21` (centres unmarked) [temazepam], the “dissolution of complex vs. physical mixture” value [1] is given as “In only one of several examples did Martini et al. obtain a physical mixture formulation having a dissolution profile comparable to that of the preformed complex formulation”.
For `Cc1cccc(N(C)C(=S)Oc2ccc3ccccc3c2)c1` [tolnaftate], the “dissolution of complex vs. physical mixture” value [1] is listed as “improved dissolution over the physical mixture or free drug”.
For `CC(=O)CC(c1ccccc1)c1c(O)c2ccccc2oc1=O` (centres unmarked) [warfarin], the “dissolution of complex vs. physical mixture” value [1] is given as “significantly better, dissolution profile”.
